According to patent publication US9809623B2, “α4β7 peptide monomer and dimer antagonists” (Protagonist Therapeutics, Inc., priority 2014, dated 2017):
Read-outs that look alike come from different tables or passages of the source. Numbered stars: 1 amine (or outer) side, 2 acyl side, 3 side chain; on linkers, the order of the positions; unused ones are H or OH. Bridge positions count the residues as written; N and C are the ends. Square brackets hold non-standard residues; d marks the D form. Peptide text beside a SMILES is read from it. I, II: the chains in the order shown. Phe(4-COOH) = N[C@@H](Cc1ccc(C(=O)O)cc1)C(=O)O; 1Nal = N[C@@H](Cc1cccc2ccccc12)C(=O)O; Diglycolyl = O=C(COCC(=O)[*:2])[*:1]; NMeR = CN[C@@H](CCCNC(=N)N)C(=O)O; β3hE = N[C@@H](CCC(=O)O)CC(=O)O; NMeK = CN[C@@H](CCCCN)C(=O)O; Pen = CC(C)(S)[C@H](N)C(=O)O; dNMeK = CN[C@H](CCCCN)C(=O)O

Legend:
[1] = target: α4β7 (Homo sapiens, UniProt P13612+P26010); assay: PBMC Memory T Cell Adhesion Assay, adhesion to MAdCAM-1; assay type: cell-based; conditions: Table 4-B; read-out: Cell Adhesion PBMC IC50
α4β7 (Homo sapiens, UniProt P13612+P26010), sequence (P13612 34-1032): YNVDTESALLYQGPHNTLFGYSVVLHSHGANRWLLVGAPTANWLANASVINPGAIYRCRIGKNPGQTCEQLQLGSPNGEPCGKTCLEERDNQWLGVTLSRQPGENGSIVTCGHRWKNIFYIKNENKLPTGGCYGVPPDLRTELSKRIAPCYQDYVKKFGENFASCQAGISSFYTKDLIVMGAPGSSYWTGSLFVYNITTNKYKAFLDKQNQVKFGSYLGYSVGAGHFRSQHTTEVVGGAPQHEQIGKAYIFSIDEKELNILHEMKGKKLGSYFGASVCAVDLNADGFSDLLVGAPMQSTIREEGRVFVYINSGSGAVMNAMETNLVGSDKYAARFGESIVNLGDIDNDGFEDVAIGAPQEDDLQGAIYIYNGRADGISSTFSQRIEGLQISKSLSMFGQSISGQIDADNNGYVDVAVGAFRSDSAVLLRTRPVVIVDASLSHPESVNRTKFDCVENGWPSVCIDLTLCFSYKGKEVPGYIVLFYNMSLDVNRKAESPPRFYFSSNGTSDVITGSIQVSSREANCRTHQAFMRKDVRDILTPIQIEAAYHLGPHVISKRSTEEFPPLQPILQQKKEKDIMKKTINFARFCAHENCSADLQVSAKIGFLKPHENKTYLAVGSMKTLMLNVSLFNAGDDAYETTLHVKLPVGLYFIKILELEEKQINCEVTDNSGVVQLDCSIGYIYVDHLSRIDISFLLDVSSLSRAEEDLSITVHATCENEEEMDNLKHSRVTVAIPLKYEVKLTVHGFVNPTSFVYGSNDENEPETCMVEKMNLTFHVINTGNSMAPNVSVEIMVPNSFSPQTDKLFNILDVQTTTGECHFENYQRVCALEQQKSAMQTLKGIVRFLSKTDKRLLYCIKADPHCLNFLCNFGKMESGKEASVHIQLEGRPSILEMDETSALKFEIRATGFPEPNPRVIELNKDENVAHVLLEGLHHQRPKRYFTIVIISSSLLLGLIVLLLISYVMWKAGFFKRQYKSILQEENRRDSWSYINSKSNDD
α4β7 (Homo sapiens, UniProt P13612+P26010), sequence (P26010 20-798): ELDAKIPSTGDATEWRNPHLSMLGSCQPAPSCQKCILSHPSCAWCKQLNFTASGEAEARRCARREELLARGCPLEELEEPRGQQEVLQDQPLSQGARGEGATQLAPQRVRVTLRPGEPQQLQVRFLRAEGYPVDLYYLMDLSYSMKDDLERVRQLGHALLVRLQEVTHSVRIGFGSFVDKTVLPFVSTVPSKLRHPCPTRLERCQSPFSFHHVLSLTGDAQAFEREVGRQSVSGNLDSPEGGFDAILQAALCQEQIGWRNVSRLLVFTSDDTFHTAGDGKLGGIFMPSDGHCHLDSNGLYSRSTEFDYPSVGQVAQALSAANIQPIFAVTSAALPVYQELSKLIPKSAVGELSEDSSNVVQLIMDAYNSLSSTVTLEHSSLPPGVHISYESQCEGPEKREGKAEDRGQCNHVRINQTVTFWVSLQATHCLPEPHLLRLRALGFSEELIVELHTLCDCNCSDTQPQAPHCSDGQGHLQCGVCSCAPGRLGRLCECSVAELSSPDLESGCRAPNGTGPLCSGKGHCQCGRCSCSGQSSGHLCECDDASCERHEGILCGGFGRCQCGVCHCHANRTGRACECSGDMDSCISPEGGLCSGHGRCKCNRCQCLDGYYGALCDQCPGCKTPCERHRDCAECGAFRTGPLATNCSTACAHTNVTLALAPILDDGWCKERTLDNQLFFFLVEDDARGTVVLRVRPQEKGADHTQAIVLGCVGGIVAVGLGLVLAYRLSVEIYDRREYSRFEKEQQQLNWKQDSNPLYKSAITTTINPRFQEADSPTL
Experimental: Fresh CD4+/CD45RO+ memory T cells were isolated from human peripheral blood mononuclear cell (PBMC) donors by Aragen Bioscience Inc. (Morgan Hill, Calif.). The assay plate was prepared using IgG Fc capture antibody (donkey anti human) immobilized at 500 ng/well in 50 mM sodium bicarbonate buffer, pH 9.5, ON, 4C onto a Greiner Fluotrac plate (100 ul per well). The plate was rinsed two time with Blocking Buffer (25 mM Tris HCl, pH7.5, 150 mM NaCl, 1.5% BSA, 0.05% Tween), and blocked with Blocking Buffer for 2 hours at 37 C or 5 hours at RT using 200 ul per well. The Blocking Buffer was removed and either MAdCAM-1 or VCAM-1 at 400 ng/well in Blocking Buffer was added and the plate incubated overnight at 4C (100 ul per well). The plate was washed two times with Blocking Buffer, and rinsed once with 200 ul Binding Media (DMEM phenol red free, 10 mM HEPES, 1×Na pyruvate, 1× Glutamine, and supplemented with 1 mM MnCl2 prior to use). To prepare cells, approximately 25 million CD4+/CD45RO+ memory T cells were counted by trypan blue exclusion using a haemocytometer to determine viability and cell count. The cells were transferred to a 50 ml conical tube, and centrifuged at 1200 rpm for 10 minute. The media was aspirated and the cell pellet resuspended in 15 ml Binding Media. The cells were centrifuged again and resuspended in the appropriate amount of Binding Media to be used for assays (50 ul of cells per well at 2× the final density). To each well, and equal volume (50 ul) of test compound was added and the plate was incubated for 1.5 hours at 37 C, 5% CO2. Each well was rinsed 3× with 150 ul per well of Binding Media. […] The plate was incubated at 37 C, 5% CO2, for 45 minutes. The plate was protected from light by using black adhesive seals. Fluorescence intensity was measured using a Molecular Devices Gemini EM Fluorescent Plate Reader (Ex 485/Em530, Bottom Read, Reading Sensitivity=20). IC50 curves are generated using Graph Pad Prism and the curves analyzed using analyzed using a non-linear regression (four parameters) algorithm. The log (concentration) versus RFU (Ex485/Em530) was plotted to determine IC50 values.

[2] = target: T1, α4β7 (Mus musculus, UniProt P26011+Q00651); assay: α4β7 Cell Adhesion Assay (Mouse), TK1 cells; assay type: cell-based
T1 construct: host or cells: TK1 mouse T cells
T1 sequence (Q00651 34-1039 limits assumed): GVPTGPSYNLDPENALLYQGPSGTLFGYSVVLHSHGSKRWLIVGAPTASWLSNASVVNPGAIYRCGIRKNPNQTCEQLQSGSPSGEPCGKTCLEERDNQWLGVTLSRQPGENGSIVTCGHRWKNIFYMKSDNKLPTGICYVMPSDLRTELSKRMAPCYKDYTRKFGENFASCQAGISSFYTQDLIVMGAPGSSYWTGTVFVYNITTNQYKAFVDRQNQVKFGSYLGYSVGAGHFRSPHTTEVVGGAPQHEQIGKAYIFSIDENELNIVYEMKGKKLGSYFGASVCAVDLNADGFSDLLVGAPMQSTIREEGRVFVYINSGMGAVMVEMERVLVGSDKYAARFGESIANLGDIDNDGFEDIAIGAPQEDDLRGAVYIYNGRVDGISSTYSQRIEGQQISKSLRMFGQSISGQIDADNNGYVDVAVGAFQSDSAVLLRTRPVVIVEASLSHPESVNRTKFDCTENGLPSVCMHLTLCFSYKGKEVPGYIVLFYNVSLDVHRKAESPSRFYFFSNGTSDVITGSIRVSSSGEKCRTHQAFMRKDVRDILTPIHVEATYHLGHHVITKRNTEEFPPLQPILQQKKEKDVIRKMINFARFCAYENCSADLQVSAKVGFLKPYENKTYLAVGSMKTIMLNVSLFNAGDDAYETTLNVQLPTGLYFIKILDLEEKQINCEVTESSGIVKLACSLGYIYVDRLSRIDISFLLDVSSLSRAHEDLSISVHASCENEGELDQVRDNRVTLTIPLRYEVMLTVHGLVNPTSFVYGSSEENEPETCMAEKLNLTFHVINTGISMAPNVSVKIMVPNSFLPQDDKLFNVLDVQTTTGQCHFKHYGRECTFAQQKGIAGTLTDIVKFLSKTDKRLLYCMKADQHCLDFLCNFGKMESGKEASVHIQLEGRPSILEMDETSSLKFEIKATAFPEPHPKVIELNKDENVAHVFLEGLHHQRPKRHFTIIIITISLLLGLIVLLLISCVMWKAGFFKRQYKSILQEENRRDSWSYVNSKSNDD
T1 sequence (P26011 20-806): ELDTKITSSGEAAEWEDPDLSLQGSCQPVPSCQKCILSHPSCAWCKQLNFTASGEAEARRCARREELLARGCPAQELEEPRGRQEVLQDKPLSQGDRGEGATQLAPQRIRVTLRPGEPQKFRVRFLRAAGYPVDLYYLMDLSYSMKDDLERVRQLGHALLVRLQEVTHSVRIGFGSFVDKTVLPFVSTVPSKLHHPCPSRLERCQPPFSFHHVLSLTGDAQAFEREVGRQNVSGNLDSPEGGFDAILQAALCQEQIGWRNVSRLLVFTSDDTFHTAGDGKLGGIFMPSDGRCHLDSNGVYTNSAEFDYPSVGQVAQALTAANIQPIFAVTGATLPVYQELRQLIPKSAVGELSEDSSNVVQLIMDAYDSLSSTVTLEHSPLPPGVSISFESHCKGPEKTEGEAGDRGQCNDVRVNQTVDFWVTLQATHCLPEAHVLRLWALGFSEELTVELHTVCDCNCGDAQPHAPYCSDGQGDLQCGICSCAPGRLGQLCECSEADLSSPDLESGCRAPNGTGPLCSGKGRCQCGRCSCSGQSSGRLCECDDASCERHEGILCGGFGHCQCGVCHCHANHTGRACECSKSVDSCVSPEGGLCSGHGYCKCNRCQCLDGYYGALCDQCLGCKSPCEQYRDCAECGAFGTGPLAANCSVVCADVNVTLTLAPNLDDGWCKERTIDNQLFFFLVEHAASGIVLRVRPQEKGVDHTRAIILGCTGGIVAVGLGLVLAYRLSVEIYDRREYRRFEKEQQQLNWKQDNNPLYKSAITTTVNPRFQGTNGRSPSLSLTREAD
Experimental: TK1 cells (ATCC # ATCC-CRL-2396) were cultured in RPMI 1640 with 2 mM L-glutamine adjusted to contain 1.5 g/L sodium bicarbonate, 4.5 g/L glucose, 10 mM HEPES, and 1.0 mM sodium pyruvate (ATCC#30-2001) and supplemented with 0.1 mM non-essential amino acids, (ATCC #30-2116) 0.05 mM 2-mercaptoethanol (Invitrogen #21985) and 10% serum (Fetal Bovine Serum, Invitrogen #16140-071), and Penicillin-Streptomycin (Invitrogen #15140-122) at 100 units of penicillin and 100 μg of streptomycin per ml. The cells were washed two times in DMEM medium (ATCC #30-2002) supplemented with 0.1% BSA, 10 mM HEPES pH 7 and 1 mM MnCl2. The cells were re-suspended in supplemented DMEM medium at a density of 4×10^6 cells/ml.
A Nunc MaxiSorp plate was coated with Recombinant human MAdCAM-1 Fc Chimera (R&D #6065-MC) at 200 ng per well in 100 μl per well in 1×PBS and incubated at 4° C. overnight. The solution was then removed by shaking, blocked with 250 ul per well PBS containing 1% BSA, and incubated at 37° C. for 1 hr. The solution was removed by shaking. DATK 32 (anti-mouse α4β7) and peptides were diluted by serial dilution in a final volume of 50 ul per well (2× concentration). To each well, 50 ul of cells (200,000 cells) are added and the plate is incubated at 37° C., 5% CO2 for 30-45 min to allow cell adhesion. The plate was manually washed three times with supplemented DMEM, 100 ul per wash. After the final wash, 100 ul/well of supplemented DMEM and […] of MTT reagent (ATTC cat#30-1010K) was added to each well. Wells were incubated at 37° C. with 5% CO2 for 2-3 hrs until purple precipitate was visible. 100 μl of Detergent Reagent (ATTC cat#30-1010K) was added to each well. The plate was then wrapped with Para film to prevent evaporation, and left overnight at room temperature in the dark. The plate was shaken for 5 min and the absorbance at 570 nm was measured. To calculate the dose response, the absorbance value of control wells not containing cells was subtracted from each test well.

[3] = Table 3-B, Potency (α4β7), range classes, read-out: α4β7 cell(MU) IC50
[4] = Table 4-B, read-out: Cell Adhesion α4β7 Mouse IC50

| SMILES | IC50 [2, 3] [µM] | IC50 [2, 4] [µM] | also measured |
| --- | --- | --- | --- |
| CC(=O)N[C@H]1CSSC(C)(C)[C@@H](C(=O)N[C@@H](Cc2c[nH]c3ccccc23)C(=O)N[C@H](CCCCNC(=O)COCC(=O)NCCCC[C@@H](NC(=O)[C@H](Cc2c[nH]c3ccccc23)NC(=O)[C@H]2NC(=O)[C@H](CC(C)C)NC(=O)[C@H]([C@@H](C)O)NC(=O)[C@H](CC(=O)O)NC(=O)[C@H](CO)NC(=O)[C@H](CCCNC(=N)N)N(C)C(=O)[C@@H](NC(C)=O)CSSC2(C)C)C(N)=O)C(N)=O)NC(=O)[C@H](CC(C)C)NC(=O)[C@H]([C@@H](C)O)NC(=O)[C@H](CC(=O)O)NC(=O)[C@H](CO)NC(=O)[C@H](CCCNC(=N)N)N(C)C1=O [compound 204, (Ac-C-N-Me-R-S-D-T-L-Pen-W-k-NH2)2-DIG] (I: Ac-C[NMeR]SDTL[Pen]W[dK]-NH2 / II: Ac-C[NMeR]SDTL[Pen]W[dK]-NH2; disulfide I:1-I:7, II:1-II:7 (inferred); linker I:9-II:9 via Diglycolyl (inferred)) |  |  | IC50 [1]: 1.28 µM |
| CC(=O)N[C@@H]1C(=O)N(C)[C@@H](CCCNC(=N)N)C(=O)N[C@@H](CO)C(=O)N[C@@H](CC(=O)O)C(=O)N[C@@H]([C@@H](C)O)C(=O)N[C@@H](CC(C)C)C(=O)N[C@H](C(=O)N[C@@H](Cc2cccc3ccccc23)C(=O)N[C@@H](CCC(=O)O)C(=O)N(C)[C@H](CCCCNC(=O)COCC(=O)NCCCC[C@H](C(N)=O)N(C)C(=O)[C@H](CCC(=O)O)NC(=O)[C@H](Cc2cccc3ccccc23)NC(=O)[C@H]2NC(=O)[C@H](CC(C)C)NC(=O)[C@H]([C@@H](C)O)NC(=O)[C@H](CC(=O)O)NC(=O)[C@H](CO)NC(=O)[C@H](CCCNC(=N)N)N(C)C(=O)[C@@H](NC(C)=O)C(C)(C)SSC2(C)C)C(N)=O)C(C)(C)SSC1(C)C [compound 44] (I: Ac-[Pen][NMeR]SDTL[Pen][1Nal]E[dNMeK]-NH2 / II: Ac-[Pen][NMeR]SDTL[Pen][1Nal]E[dNMeK]-NH2; disulfide I:1-I:7, II:1-II:7; linker I:10-II:10 via Diglycolyl) | < 0.01 |  |  |
| CC(=O)N[C@@H]1C(=O)N(C)[C@@H](CCCNC(=N)N)C(=O)N[C@@H](CO)C(=O)N[C@@H](CC(=O)O)C(=O)N[C@@H]([C@@H](C)O)C(=O)N[C@@H](CC(C)C)C(=O)N[C@H](C(=O)N[C@@H](Cc2c[nH]c3ccccc23)C(=O)N[C@@H](CCC(=O)O)C(=O)N[C@H](CCCCNC(=O)COCC(=O)NCCCC[C@@H](NC(=O)[C@H](CCC(=O)O)NC(=O)[C@H](Cc2c[nH]c3ccccc23)NC(=O)[C@H]2NC(=O)[C@H](CC(C)C)NC(=O)[C@H]([C@@H](C)O)NC(=O)[C@H](CC(=O)O)NC(=O)[C@H](CO)NC(=O)[C@H](CCCNC(=N)N)N(C)C(=O)[C@@H](NC(C)=O)C(C)(C)SSC2(C)C)C(N)=O)C(N)=O)C(C)(C)SSC1(C)C [compound 67] (I: Ac-[Pen][NMeR]SDTL[Pen]WE[dK]-NH2 / II: Ac-[Pen][NMeR]SDTL[Pen]WE[dK]-NH2; disulfide I:1-I:7, II:1-II:7; linker I:10-II:10 via Diglycolyl) | < 0.01 |  |  |
| CC(=O)N[C@@H]1C(=O)N(C)[C@@H](CCCNC(=N)N)C(=O)N[C@@H](CO)C(=O)N[C@@H](CC(=O)O)C(=O)N[C@@H]([C@@H](C)O)C(=O)N[C@@H](CC(C)C)C(=O)N[C@H](C(=O)N[C@@H](Cc2c[nH]c3ccccc23)C(=O)N[C@@H](CCC(=O)O)C(=O)N[C@H](CCCCNC(=O)COCC(=O)NCCCC[C@@H](NC(=O)[C@H](CCC(=O)O)NC(=O)[C@H](Cc2c[nH]c3ccccc23)NC(=O)[C@H]2NC(=O)[C@H](CC(C)C)NC(=O)[C@H]([C@@H](C)O)NC(=O)[C@H](CC(=O)O)NC(=O)[C@H](CO)NC(=O)[C@H](CCCNC(=N)N)N(C)C(=O)[C@@H](NC(C)=O)C(C)(C)SSC2(C)C)C(N)=O)C(N)=O)C(C)(C)SSC1(C)C [compound 217, (Ac-Pen-N-Me-R-S-D-T-L-Pen-W-E-k-NH2)2-DIG] (I: Ac-[Pen][NMeR]SDTL[Pen]WE[dK]-NH2 / II: Ac-[Pen][NMeR]SDTL[Pen]WE[dK]-NH2; disulfide I:1-I:7, II:1-II:7 (inferred); linker I:10-II:10 via Diglycolyl (inferred)) |  | 0.0012 |  |
| CC(=O)N[C@@H]1C(=O)N(C)[C@@H](CCCNC(=N)N)C(=O)N[C@@H](CO)C(=O)N[C@@H](CC(=O)O)C(=O)N[C@@H]([C@@H](C)O)C(=O)N[C@@H](CC(C)C)C(=O)N[C@H](C(=O)N[C@@H](Cc2c[nH]c3ccccc23)C(=O)N[C@H](CCC(=O)O)C(=O)N[C@H](CCCCNC(=O)COCC(=O)NCCCC[C@@H](NC(=O)[C@@H](CCC(=O)O)NC(=O)[C@H](Cc2c[nH]c3ccccc23)NC(=O)[C@H]2NC(=O)[C@H](CC(C)C)NC(=O)[C@H]([C@@H](C)O)NC(=O)[C@H](CC(=O)O)NC(=O)[C@H](CO)NC(=O)[C@H](CCCNC(=N)N)N(C)C(=O)[C@@H](NC(C)=O)C(C)(C)SSC2(C)C)C(N)=O)C(N)=O)C(C)(C)SSC1(C)C [compound 211, (Ac-Pen-N-Me-R-S-D-T-L-Pen-W-e-k-NH2)2-DIG] (I: Ac-[Pen][NMeR]SDTL[Pen]W[dE][dK]-NH2 / II: Ac-[Pen][NMeR]SDTL[Pen]W[dE][dK]-NH2; disulfide I:1-I:7, II:1-II:7 (inferred); linker I:10-II:10 via Diglycolyl (inferred)) |  | 0.0073 |  |
| CC(=O)N[C@@H]1C(=O)N(C)[C@@H](CCCNC(=N)N)C(=O)N[C@@H](CO)C(=O)N[C@@H](CC(=O)O)C(=O)N[C@@H]([C@@H](C)O)C(=O)N[C@@H](CC(C)C)C(=O)N[C@H](C(=O)N[C@@H](Cc2ccc(C(=O)O)cc2)C(=O)N[C@@H](CCC(=O)O)CC(=O)N(C)[C@@H](CCCCNC(=O)COCC(=O)NCCCC[C@@H](C(N)=O)N(C)C(=O)C[C@H](CCC(=O)O)NC(=O)[C@H](Cc2ccc(C(=O)O)cc2)NC(=O)[C@H]2NC(=O)[C@H](CC(C)C)NC(=O)[C@H]([C@@H](C)O)NC(=O)[C@H](CC(=O)O)NC(=O)[C@H](CO)NC(=O)[C@H](CCCNC(=N)N)N(C)C(=O)[C@@H](NC(C)=O)C(C)(C)SSC2(C)C)C(N)=O)C(C)(C)SSC1(C)C [compound 148] (I: Ac-[Pen][NMeR]SDTL[Pen][Phe(4-COOH)][β3hE][NMeK]-NH2 / II: Ac-[Pen][NMeR]SDTL[Pen][Phe(4-COOH)][β3hE][NMeK]-NH2; disulfide I:1-I:7, II:1-II:7; linker I:10-II:10 via Diglycolyl) | < 0.01 |  |  |
